Measurements published in patent US11480578B2, “Method for identifying a biomarker indicative of a reduced drug response using a thermal shift assay” (Pelago Bioscience AB, priority 2014, dated 2022).

System: Methionine aminopeptidase-2
Experiment: cell resolved thermal shift assay (FACS sorting, heating, Western blot)
Assay type: cell-based, mouse
Conditions: TNP-470 final concentration 2 μM for one hour; mixed cells FACS sorted; heated 44 to 52° C.; MetAP-2 Western blot; FIG. 3
Method: Human cancer cell line K562 and mouse fibrosarcoma cell line T241 with endogenous expression of GFP, were cultured to short-term passages (3-15) in an incubator chamber. The T241 cells were treated with the MetAP-2 inhibitor TNP-470 (final concentration 2 μM) for one hour in the incubator chamber. Following incubation, the cells were washed by repeated centrifugation to pellet cells and re-dissolve in PBS. After this step, the cells were pooled into a PBS buffer. This mix of cells was then subjected to FACS sorting using a MoFlo XDP from Beckman Coulter. Cells were either sorted by their GFP fluorescence (T241) or by the lack of fluorescence (K562). The sorted cells were then aliquoted in 8 tube PCR strips and subjected to heating to temperatures ranging from 44 to 52° C. with two degree increments. After heating, the cells were snap frozen in N2 (I) and freeze thawed. The resulting cell debris together with precipitated protein was pelleted by centrifugation at 20000*g for 20 minutes. The supernatants, containing various amount of the target protein (MetAP-2) were subjected to standard SDS-Page and Western blot analysis using a specific primary MetAP-2 antibody (Santa Cruz Biotechnology SC-365637) at 1:400 dilution in non-fat dietary milk.

## CO[C@@H]1[C@H](OC(=O)NC(=O)CCl)CC[C@]2(CO2)[C@H]1[C@@]1(C)O[C@@H]1CC=C(C)C [TNP-470]
  stabilisation of the target protein Methionine aminopeptidase-2 (dark band shows presence of heat stabilised protein): stabilisation
